Key:
[1] = test system: influenza virus strain A/Puerto Rico/8/34 (H1N1); type: cell-based; details: result in words; for activity against influenza virus strain A/Puerto Rico/8/34 (H1N1): MDCK cells
MDCK cells = assay: Cytotoxicity in MDCK cells, MTT assay; type: cell-based; details: result in words

In the case of `O=C(Cn1nnc(-c2ccccc2)n1)NNc1ncccn1` [Compound 7a, N '-(Pyrimidin-2-yl)-2-(5-phenyl-2 H -tetrazol-2-yl)acetohydrazide], the “activity against influenza virus strain A/Puerto Rico/8/34 (H1N1)” value (“activity” below) [1] is reported as “did not show activity”.
With `Cc1cc(C)nc(NNC(=O)Cn2nnc(-c3ccccc3)n2)n1` [Compound 7b, N '-(4,6-Dimethylpyrimidin-2-yl)-2-(5-phenyl-2 H -tetrazol-2-yl)acetohydrazide] the “activity” value [1] was “did not show activity”.
With `c1ccc(-n2nnnc2Sc2ncccn2)cc1` [Compound 12a, 2-[(1-Phenyl-1 H -tetrazol-5-yl)sulfanyl]pyrimidine] the “activity” value [1] was “did not show activity”.
`Cc1cc(C)nc(Sc2nnnn2CC(=O)O)n1` [Compound 12b, {5-[(4,6-Dimethylpyrimidin-2-yl)sulfanyl]-1 H -tetrazol-1-yl}acetic acid] was tested, and the “SI relative to the reference drug rimantadine” value ([1]; influenza A H1N1 in MDCK cells) was “twice” and the cytotoxicity (MDCK cells) was “significantly lower cytotoxicity”.
